Measurements published in US20050288347A1, “Certain triazole-based compounds, compositions, and uses thereof” (priority 2004, published 2005).
Entries after “also recorded” stand apart in the source; their conditions may differ.

Target: protein kinase
Experiment: HTS ATP-utilizing enzyme assay, off-chip mobility-shift format (Caliper HTS 250)
Type: biochemical, human
Settings: kinase(s) for which the compound exhibits protein kinase inhibitory activity; test compound 10 μM; active = greater than three-sigma from the mean activity of inactive compounds
Procedure, shortened: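 Kinase reactions ran 2.5 h at 20 to 22 °C with test compound at 10 μM, in a HEPES pH 7.5 master buffer containing Triton X-100 and BSA. Peptide substrate and phosphorylated product separated by mobility shift; inhibition normalized to DMSO (0%) and EDTA (100%) controls, with three-sigma thresholds for hits.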

Kinase | SMILES
GSK3-α | CCn1c(S)nnc1COc1ccc(Cl)c(C)c1 [5-((4-chloro-3-methylphenoxy)methyl)-4-ethyl-4H-1,2,4-triazole-3-thiol]
GSK3-α | COCCn1c(S)nnc1COc1ccc(Cl)cc1 [5-((4-chlorophenoxy)methyl)-4-(2-methoxyethyl)-4H-1,2,4-triazole-3-thiol]
AURORA-A | CCOc1ccc(NCc2nnc(S)n2-c2ccc(C)cc2)cc1 [5-((4-ethoxyphenylamino)methyl)-4-p-tolyl-4H-1,2,4-triazole-3-thiol]
AURORA-A | Fc1ccc(NCc2nnc(S)n2-c2ccccc2)cc1 [5-((4-fluorophenylamino)methyl)-4-phenyl-4H-1,2,4-triazole-3-thiol]
AURORA-A; also recorded: GSK3-α | COc1ccc(OCc2nnc(S)n2-c2ccc(C)cc2)cc1 [5-((4-methoxyphenoxy)methyl)-4-p-tolyl-4H-1,2,4-triazole-3-thiol]
AURORA-A and PDGFRR-α and MSK2 | COc1ccc(NCc2nnc(S)n2-c2ccc(C)cc2)cc1 [5-((4-methoxyphenylamino)methyl)-4-p-tolyl-4H-1,2,4-triazole-3-thiol]
FLT-3; also recorded: PDGFRR-α | O=[N+]([O-])c1ccc(OCc2nnc(S)n2-c2ccccc2)cc1 [5-((4-nitrophenoxy)methyl)-4-phenyl-4H-1,2,4-triazole-3-thiol]
GSK3-α | Cc1cccc(NCc2nnc(S)n2-c2ccccc2)c1 [5-((m-toluidino)methyl)-4-phenyl-4H-1,2,4-triazole-3-thiol]
AURORA-A | Sc1nnc(COc2ccc3ccccc3c2)n1-c1ccccc1 [5-((naphthalen-2-yloxy)methyl)-4-phenyl-4H-1,2,4-triazole-3-thiol]
CDK2-cyclinA; also recorded: GSK3-α | Cc1ccc(NCc2nnc(S)n2-c2cccc(Cl)c2)cc1 [5-((p-toluidino)methyl)-4-(3-chlorophenyl)-4H-1,2,4-triazole-3-thiol]
PAK2 and GSK3-α | Cc1ccc(NCc2nnc(S)n2-c2ccc(Cl)cc2)cc1 [5-((p-toluidino)methyl)-4-(4-chlorophenyl)-4H-1,2,4-triazole-3-thiol]
AKT1 | Cn1c(S)nnc1C1CCCCC1 [5-cyclohexyl-4-methyl-4H-1,2,4-triazole-3-thiol]
MAPKAPK-2 | Cc1nnc(S)n1CC1CCCO1 (stereo not shown) [5-methyl-4-((tetrahydrofuran-2-yl)methyl)-4H-1,2,4-triazole-3-thiol]
FLT-3; also recorded: PDGFRR-α | O=[N+]([O-])c1ccc(Sc2nnc(COc3ccccc3)n2-c2ccccc2)c2cccnc12 [8-nitro-5-(5-(phenoxymethyl)-4-phenyl-4H-1,2,4-triazol-3-ylthio)quinoline]
FYN | O=C(CSc1nncn1-c1cccnc1)Nc1ccccc1[N+](=O)[O-] [N-(2-nitrophenyl)-2-(4-(pyridin-3-yl)-4H-1,2,4-triazol-3-ylthio)acetamide]
DAPK1 | Cc1nnc(SCC(=O)Nc2cccc(Cl)c2)n1C [N-(3-chlorophenyl)-2-(4,5-dimethyl-4H-1,2,4-triazol-3-ylthio)acetamide]
GSK3-α; also recorded: CHEK2 | Cn1c(S)nnc1-c1ccc(NC(=O)c2ccccc2)cc1 [N-(4-(5-mercapto-4-methyl-4H-1,2,4-triazol-3-yl)phenyl)benzamide]
CDK2-cyclinE | O=C(CSc1nnc(Cc2ccccc2)n1Cc1ccccc1)Nc1ccccc1-c1ccccc1 [N-(biphenyl-2-yl)-2-(4,5-dibenzyl-4H-1,2,4-triazol-3-ylthio)acetamide]
AURORA-A | C=CCNC(=O)CSc1nnc(-c2ccccc2O)n1-c1ccc(C)cc1 [N-allyl-2-(5-(2-hydroxyphenyl)-4-p-tolyl-4H-1,2,4-triazol-3-ylthio)acetamide]
MAPKAPK-2 and FYN | Cc1cccc(-c2nnc(SCC(=O)NCc3ccccc3)n2C)c1 [N-benzyl-2-(4-methyl-5-m-tolyl-4H-1,2,4-triazol-3-ylthio)acetamide]
AKT1 | COc1ccc(-c2nnc(SCC(=O)OCc3ccccc3)n2-c2ccc(OC)cc2)cc1 [benzyl 2-(4,5-bis(4-methoxyphenyl)-4H-1,2,4-triazol-3-ylthio)acetate]
CDK2-cyclinE | CC(C)Cn1c(SCC(=O)OCc2ccccc2)nnc1-c1ccccc1O [benzyl 2-(5-(2-hydroxyphenyl)-4-isobutyl-4H-1,2,4-triazol-3-ylthio)acetate]
PDK1 and HCK | O=C(CSc1nnc(CC2CCCCC2)n1-c1ccccc1)OCc1ccccc1 [benzyl 2-(5-(cyclohexylmethyl)-4-phenyl-4H-1,2,4-triazol-3-ylthio)acetate]
PDGFRR-α and FYN and FLT-3 | Cn1c(SCC(=O)OC2CCCCC2)nnc1-c1ccc([N+](=O)[O-])cc1 [cyclohexyl 2-(4-methyl-5-(4-nitrophenyl)-4H-1,2,4-triazol-3-ylthio)acetate]
AURORA-A and FYN | CCOC(=O)CSc1nnc(-c2ccccc2OC)n1C [ethyl 2-(5-(2-methoxyphenyl)-4-methyl-4H-1,2,4-triazol-3-ylthio)acetate]
MAPKAPK-2; also recorded: CDK2-cyclinE | CCOC(=O)CSc1nnc(-c2ccc(OC)c(OC)c2)n1-c1ccccc1 [ethyl 2-(5-(3,4-dimethoxyphenyl)-4-phenyl-4H-1,2,4-triazol-3-ylthio)acetate]
PAK2 | CCOC(=O)CSc1nnc(-c2ccco2)n1-c1ccc(C)cc1 [ethyl 2-(5-(furan-2-yl)-4-p-tolyl-4H-1,2,4-triazol-3-ylthio)acetate]
CDK2-cyclinA and AURORA-A and CDK5 | CCOC(=O)CSc1nnc(-c2ccncc2)[nH]1 [ethyl 2-(5-(pyridin-4-yl)-4H-1,2,4-triazol-3-ylthio)acetate]
PDGFRR-α and FYN | CCn1c(SCC(=O)OC)nnc1-c1ccc([N+](=O)[O-])cc1 [methyl 2-(4-ethyl-5-(4-nitrophenyl)-4H-1,2,4-triazol-3-ylthio)acetate]
MAPKAPK-2 | CCn1c(SCC(=O)OC)nnc1-c1ccccc1 [methyl 2-(4-ethyl-5-phenyl-4H-1,2,4-triazol-3-ylthio)acetate]

SMILES | Kinase
Cc1ccc(-n2c(S)nnc2CNc2ccc(F)cc2)cc1 [5-((4-fluorophenylamino)methyl)-4-p-tolyl-4H-1,2,4-triazole-3-thiol] | AURORA-A; also recorded: GSK3-α; also recorded: GSK3-β
COc1ccc(-n2c(S)nnc2CNc2ccc(C)cc2)cc1 [5-((p-toluidino)methyl)-4-(4-methoxyphenyl)-4H-1,2,4-triazole-3-thiol] | AURORA-A; also recorded: PDGFRR-α; also recorded: GSK3-β
CCn1c(SCC(=O)OC)nnc1-c1ccc(O)cc1 [methyl 2-(4-ethyl-5-(4-hydroxyphenyl)-4H-1,2,4-triazol-3-ylthio)acetate] | GSK3-β; also recorded: GSK3-α; also recorded: CHEK1
COC(=O)CSc1nnc(-c2ccncc2)[nH]1 [methyl 2-(5-(pyridin-4-yl)-4H-1,2,4-triazol-3-ylthio)acetate] | AURORA-A; also recorded: DYRK2; also recorded: GSK3-β

Same assay, conditions: test compound 10 μM; active = activity greater than three-sigma from the mean of the predominately inactive population for that enzyme

SMILES | protein kinase against which the compound exhibits inhibitory activity (Table 3)
C(=C\c1ccccc1)/CSc1nnc(-c2ccncc2)n1-c1ccccc1 [(E)-4-(5-(cinnamylthio)-4-phenyl-4H-1,2,4-triazol-3-yl)pyridine] | GSK3-β and GSK3-α and MSK1
CN(C)CCCSc1nnc(-c2ccc([N+](=O)[O-])cc2)[nH]1 [N,N-dimethyl-3-(5-(4-nitrophenyl)-4H-1,2,4-triazol-3-ylthio)propan-1-amine] | c-TAK1
CN(C)CCCSc1nnc(-c2cccs2)[nH]1 [N,N-dimethyl-3-(5-(thiophen-2-yl)-4H-1,2,4-triazol-3-ylthio)propan-1-amine] | c-TAK1; also recorded: AURORA-A; also recorded: GSK3-α
O=C(NCCSc1nnc(-c2cccs2)[nH]1)c1ccccc1 [N-(2-(5-(thiophen-2-yl)-4H-1,2,4-triazol-3-ylthio)ethyl)benzamide] | DYRK2; also recorded: GSK3-α; also recorded: GSK3-β
O=C(NCCSc1nnc(-c2ccccc2)[nH]1)c1ccccc1 [N-(2-(5-phenyl-4H-1,2,4-triazol-3-ylthio)ethyl)benzamide] | GSK3-β; also recorded: DYRK2; also recorded: AURORA-A
COc1ccccc1-n1c(SCCCC(=O)OCc2ccccc2)nnc1-c1ccccc1 [benzyl 4-(4-(2-methoxyphenyl)-5-phenyl-4H-1,2,4-triazol-3-ylthio)butanoate] | AURORA-A
CCOC(=O)CCSc1nnc(-c2cccc(C(F)(F)F)c2)[nH]1 [ethyl 3-(5-(3-(trifluoromethyl)phenyl)-4H-1,2,4-triazol-3-ylthio)propanoate] | AURORA-A; also recorded: FLT-3; also recorded: GSK3-β
CCOC(=O)CCSc1nnc(-c2cccnc2)[nH]1 [ethyl 3-(5-(pyridin-3-yl)-4H-1,2,4-triazol-3-ylthio)propanoate] | AURORA-A; also recorded: DYRK2
CCOC(=O)c1ccc(CSc2nnc(-c3cccc(C)c3)[nH]2)o1 [ethyl 5-((5-m-tolyl-4H-1,2,4-triazol-3-ylthio)methyl)furan-2-carboxylate] | AURORA-A; also recorded: FLT-3; also recorded: CHEK2
CCOC(=O)c1ccc(CSc2nnc(-c3ccccc3)[nH]2)o1 [ethyl 5-((5-phenyl-4H-1,2,4-triazol-3-ylthio)methyl)furan-2-carboxylate] | AURORA-A; also recorded: FLT-3; also recorded: GSK3-β
CCC(c1ccccc1)c1nnc(SCc2ccc(C(=O)OC)cc2)[nH]1 (stereo not shown) [methyl 4-((5-(1-phenylpropyl)-4H-1,2,4-triazol-3-ylthio)methyl)benzoate] | FLT-3
COC(=O)c1ccc(CSc2nnc(-c3cccs3)[nH]2)cc1 [methyl 4-((5-(thiophen-2-yl)-4H-1,2,4-triazol-3-ylthio)methyl)benzoate] | AURORA-A; also recorded: FLT-3; also recorded: c-TAK1
